The values below come from patent publication US5480971A, “Peralkylated oligopeptide mixtures” (Houghten Pharmaceuticals, Inc., priority 1994, dated 1996).

Data set [1] can be described thus: Enzymatic susceptibility to chymotrypsin (RP-HPLC, mass spectral analysis). In kind it is in vitro ADME. Particulars: chymotrypsin; overnight enzyme exposure (16 hours), room temperature, pH 7.8; read-out: cleavage by chymotrypsin. As to the method: (§1) The stability of N-permethylated compounds to proteolysis was examined for two permethylated sequences, AlaGlyGlyPheLeu-NH2 (SEQ ID NO:37) and ArgGlyGlyPheLeu-NH2 (SEQ ID NO:38) with their non-permethylated equivalents used as controls. Treatment of these found compounds by trypsin and chymotrypsin was monitored by RP-HPLC and mass spectral analysis. Rapid cleavage of AGGFL-NH2 (SEQ ID NO:37) by chymotrypsin and RGGFL-NH2 (SEQ ID N0:38) by trypsin was observed (<1 hour), whereas less than 1 percent cleavage of the equivalent permethylated peptides was seen following overnight enzyme exposure.
(§2) The assays were performed in 1 ml 0.1M NH4 HCO3, pH 7.8, at room temperature for 16 hours at a peptide concentration of 1.0 mg/ml. Enzyme to peptide concentration was 1:50.

For data set [2] the following is noted: Merck Index, 10th ed.; cited from earlier work.
The test system of another data set is chymotrypsin. Nature of the data set: Enzymatic susceptibility to chymotrypsin (RP-HPLC, mass spectral analysis). Format: in vitro ADME. As to conditions: peptide 1.0 mg/ml, enzyme to peptide 1:50, 0.1M NH4HCO3 pH 7.8, room temperature. As to the method: as §1, §2
A further data set deals with trypsin. Put plainly: Enzymatic susceptibility to trypsin (RP-HPLC, mass spectral analysis). Format: in vitro ADME. As to conditions: peptide 1.0 mg/ml, enzyme to peptide 1:50, 0.1M NH4HCO3 pH 7.8, room temperature. As to the method:
as §1, §2

Square brackets hold non-standard residues; d marks the D form. Ends that are not written are not given here. Peptide text beside a SMILES is read from it. * marks the point of attachment. NMeF = CN[C@@H](Cc1ccccc1)C(=O)O; X3 = C[C@@H](C(=O)*)[N+](C)(C)C; NMeL = CN[C@@H](CC(C)C)C(=O)O; Sar = CNCC(=O)O

`CNC(=O)[C@H](CC(C)C)N(C)C(=O)[C@H](Cc1ccccc1)N(C)C(=O)CN(C)C(=O)CN(C)C(=O)[C@H](C)[N+](C)(C)C` [PerA-AGGFL] (X3-[Sar][Sar][NMeF][NMeL]-NHMe): in data set [1], the metabolised at 16 h, 1 mg/ml was less than 1%.

Take `C[C@]12CC[C@H]3[C@@H](CCC4=CC(=O)CC[C@@]43C)[C@@H]1CC[C@@H]2O` [testosterone]: the solubility in water result in data set [2] was “insoluble in water”.

In the case of “AlaGlyGlyPheLeu-NH2 (AGGFL-NH2) [non-permethylated equivalent used as control, reference compound]”, the “time in which cleavage by chymotrypsin was observed” value in the data set on chymotrypsin is less than 1 h.

With “ArgGlyGlyPheLeu-NH2 (RGGFL-NH2) [non-permethylated equivalent used as control]”, in the data set with trypsin, the “time in which cleavage by trypsin was observed” value is less than 1 h.
